# Reference: patent US11666600B2, “Methods for culturing and/or differentiating hematopoietic stem cells into progenitors and uses thereof” (HEMA-QUEBEC, priority 2015, dated 2023)
# Experiments:
# cord blood CD34+ cells = assay: Expansion of CD34+/CD41+ megakaryocytic progenitors from cord blood CD34+ cells; type: cell-based, human; settings: 39° C. + PIC2 500 nM; 14 days; SFEM + BS1; FIG. 7
# Protocol: Human cord blood (CB) was collected after obtaining written informed consent from donors, following our institutional Research Ethics Committee guidelines. Mononuclear cells (MNCs) were first separated over a Ficoll-Hypaque™ density gradient (GE Healthcare), then cryopreserved at −180° C. in Cryostor CS10™ medium ([…] Technologies). Thawed MNCs from six to eight CB were pooled before CD34 isolation. CB CD34+ cells were enriched by positive selection using the EasySep™ CD34 enrichment kit, according to the manufacturer's instructions ([…] Technologies). […]
# Cellular counts and viability were determined by adding Solution 18 (Acridine Orange and DAPI solution, ChemomMetec) and using NucleoCounter™ NC-250 for detection (ChemomMetec).
# For cells expanded in conditions favoring differentiation towards the MK lineage, surface markers were detected using the following antibodies: CD34-FITC, CD41a-APC and CD42b-PE. […] All samples were analyzed on an Accuri™ C6 flow cytometer (BD Biosciences), and raw data were analyzed with FCS Express 5 Flow Research Edition software from at least 15 000 viable cell events acquired for each sample. […]
# Cellular counts and viability were determined as described in Example 6.5. […]
# [1] = tested on: CD34+/CD45RA− mobilized peripheral blood cells; settings: Fares et al., 2014; cited from earlier work
# [2] = tested on: aryl hydrocarbon receptor (AhR) pathway; settings: Fares et al., 2014; cited from earlier work
structure (smiles),measurement,setting,value
"COC(=O)c1ccc2c(c1)[nH]c1ncnc(NCCCN3CCCCC3)c12 [PIC2, Methyl 4-((3-(piperidin-1-yl)propyl)amino)-9H-pyrimido[4,5-b]indole-7-carboxylate]",combined use of mild hyperthermia and PIC2 on expansion of CB CD34+/CD41+ cells,cord blood CD34+ cells,synergistic effect
same,expansion of CD34+/CD45RA− mobilized peripheral blood cells (enriched in LT-HSCs),[1],stimulate expansion
same,suppression of the aryl hydrocarbon receptor (AhR) pathway,[2],without acting as suppressors
